According to paper PMC7937321 (Genes and Environment, 2021):

Tests used:
[1] = tested on: human lymphoblastoid TK6 cells, thymidine kinase gene; assay: TK gene mutation assay (TK6 assay, OECD TG490)
Procedure: In principle, this collaborative study conducted the treatment of test substances, the dose finding, and the main test of TK6 assays, according to the OECD Guideline TG490 [17]. […] Briefly, test substances were dissolved in an appropriate solvent (DMSO or ethanol) and then serially diluted to prepare final concentrations. […] The 4 h and 24 h treatments were conducted by shaking and static exposures, respectively. After treatment with test substances, cells were centrifuged (1000 rpm, 5 min), supernatants were removed, and cells were washed with a serum-free medium or Hank’s Balanced Salt Solution. After centrifugation (1000 rpm, 5 min) to remove the supernatant, cells (2 × 10^7 cells) were dispersed in an RPMI medium containing 10% serum, and cell concentration was measured. Treated cells were cultured at 37 °C with 5% CO2 condition and used for TK6 assays. At that time, to calculate the cloning efficiency (CE) (Eq. 1), the cells were cultured in a 96-well microplate at a concentration of about 1.6 cells/well for 2 weeks.
The TK6 assay is conducted between 20 and 10% RS0 as a maximum dose if cytotoxicity is observed. If no precipitate or limiting cytotoxicity was observed, the maximum dose was the lowest concentration among 10 mM, 2 mg/mL, or 2 μL/mL of the test substance. When the main TK6 assay was difficult to conduct under the condition of RS0 values from 20 to 10%, the test was conducted between 20 and 10% relative total growth (RTG), described later, as a maximum dose.
On the third day of culture, CE3 plates for determining plating efficiency and mutant frequency (MF) plates for mutation detection were prepared. CE3 plates were seeded in 96-well microplates at a concentration of about 1.6 cells/well. The MF plates were seeded in 96-well microplates at 40,000 cells/well in the presence of 3 μg/mL of trifluorothymidine (Sigma Aldrich).
Mutant colonies in MF plates were calculated using Eq. 7 using the Poisson distribution. EW was the number of wells without colonies, and TW was the total number of wells. N was the average number of cells per well (N = 40,000 in this study). The data were statistically analyzed by Omori’s method, a modified Dunnett’s procedure for identifying clear negatives, a Simpson–Margolin procedure for detecting downturn data, and a trend test to evaluate the dose dependency [42, 43]. The acceptability criterion for the test was that the MF value of the positive control group of each laboratory was increased with statistical significance compared with that of the concurrent negative control group.

TK6 cells = assay: Cytotoxicity in the TK6 assay (CE, RS, RSG, RTG); settings: +S9 mix
Procedure: Briefly, test substances were dissolved in an appropriate solvent (DMSO or ethanol) and then serially diluted to prepare final concentrations. […] The 4 h and 24 h treatments were conducted by shaking and static exposures, respectively. After treatment with test substances, cells were centrifuged (1000 rpm, 5 min), supernatants were removed, and cells were washed with a serum-free medium or Hank’s Balanced Salt Solution. After centrifugation (1000 rpm, 5 min) to remove the supernatant, cells (2 × 10^7 cells) were dispersed in an RPMI medium containing 10% serum, and cell concentration was measured. Treated cells were cultured at 37 °C with 5% CO2 condition and used for TK6 assays. At that time, to calculate the cloning efficiency (CE) (Eq. 1), the cells were cultured in a 96-well microplate at a concentration of about 1.6 cells/well for 2 weeks.
CE, the cell colony formation rate, was calculated using Eq. 1 according to the Poisson distribution equation. EW was the number of wells without colonies, and TW was the total number of wells. N was the average number of cells per well (N = 1.6). 1 CE=−lnEW/TW/N
Additionally, CE was adjusted by the following calculation (Eq. 2) due to cell loss when exposure caused cytotoxicity. “The number of cells at the end of the treatment” was the number of cells obtained after centrifugation at the end of the treatment in the above-described exposure treatment of the test substance. The “cell number at the start of treatment” was 2 × 10^7. 2 AdjustedCE=CE×number of cellsatendof treatment/number of cellsatthe start of treatment
CE0 seeding, in which cells were seeded immediately after treatment, and CE3 seeding, in which cells were seeded 3 days after treatment, to examine cell viability in the TK6 assay described below. The relative cell viability RS0 (%) just after the treatment with the test substance was calculated from CE0, following Eq. 3. The survival rate of the negative control group was defined as 100%. 3 RS0%=adjusted CE0 of treatment culture/adjusted CE0 of solvent control×100
The TK6 assay is conducted between 20 and 10% RS0 as a maximum dose if cytotoxicity is observed. […] When the main TK6 assay was difficult to conduct under the condition of RS0 values from 20 to 10%, the test was conducted between 20 and 10% relative total growth (RTG), described later, as a maximum dose.
Besides RS0, relative suspension growth (RSG) and RTG as other cytotoxicity indices (Eq. 4) were used. When cells were cultured for 3 days after treatment with the test substance, suspension cell growth ratio 1 (SG1) was the growth ratio from day 0 to day 1 (cell concentration on day 1/cell concentration on day 0). The suspension cell growth ratio 2 (SG2) was the growth ratio from day 1 to day 2 (cell concentration on day 2/cell concentration on day 1). The RSG value was calculated by dividing the total SG value of the untreated group for 3 days by the total SG value of the treated group for the same 3 days (Eq. 4).
On the third day of culture, CE3 plates for determining plating efficiency and mutant frequency (MF) plates for mutation detection were prepared. CE3 plates were seeded in 96-well microplates at a concentration of about 1.6 cells/well.

[2] = dose 3.00 μg/mL, short treatment, +S9 mix
[3] = short treatment, +S9 mix, positive control, dose 10.00 μg/mL
[4] = Short treatment, 3.00 μg/mL, Day 0
[5] = dose 3.00 μg/mL, short treatment
[6] = short treatment, Day 0, positive control, dose 10.00 μg/mL

## O=P1(N(CCCl)CCCl)NCCCO1 (centres unmarked) [CP, Cyclophosphamide, reference compound]
[1]; [2]
  %SG: 75.7%
  Mut. freq. (×10-6) N-MF: 14.0 ×10-6
  Mut. freq. (×10-6) S-MF: 43.8 ×10-6
  Mut. freq. (×10-6) T-MF: 57.8 ×10-6
[1]; short treatment with S9 mix, 2.5–3 μg/mL
  mutant frequency of the concurrent positive control (mean): 28.6 × 10^− 6
[1]; [3]
  %SG: 50.8%
  Mut. freq. N-MF: 10.0 ×10-6
  Mut. freq. S-MF: 10.3 ×10-6
  Mut. freq. T-MF: 20.3 ×10-6
TK6 cells; Short treatment, 3.00 μg/mL
  Daily cell growth Day 1×2×3: 7.35
  RSG: 0.385
TK6 cells; [4]
  Adjusted CE0: 34.5%
  CE0: 36.0%
  RS0: 43.1%
TK6 cells; Short treatment, 3.00 μg/mL, Day 3
  CE3: 66.7%
TK6 cells; [5]
  CE3: 0.667
  RS: 43.1
TK6 cells; [6]
  Adjusted CE0: 11.6%
  CE0: 10.6%
  RS0: 12.2%
TK6 cells; short treatment, Day 3, positive control, dose 10.00 μg/mL
  CE3: 68.7%
TK6 cells; short treatment, as fraction, positive control, dose 10.00 μg/mL
  CE3: 0.687
TK6 cells; short treatment, positive control, dose 10.00 μg/mL
  RSG: 0.063
